Source: patent US20030134859A1 (SANKYO COMPANY, LIMITED, priority 2000, published 2003)
Read-outs that look alike come from different tables or passages of the source.

Experiments:
leptin production = assay: Enhancing activity for leptin production in adipocytes (ELISA); format: cell-based, rat; conditions: leptin concentration as % of control group
Method in brief: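 Leptin release, quantified by rat leptin ELISA, expressed as percent of 0.1% DMSO control after 24 h at 37 °C. Cells were floating adipocytes isolated by collagenase digestion of epididymal fat from male 6-week Wistar Imamichi rats; compound tested at 1 nM–1 µM final.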

TNF-α production = assay: Inhibitory activity against cytokine (TNF-α) production in LPS-stimulated RAW264.7 cells; format: cell-based, mouse; conditions: 1 μM test compound, LPS 10 ng/mL; for inhibition at 1 µM: Mus musculus
Method in brief: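 Mouse RAW264.7 macrophages (5,000 cells/well) stimulated with 10 ng/mL LPS (final) and treated with test compound at 1 μM final for 15 h at 37 °C. Supernatant mouse TNF-α measured by ELISA; % inhibition = 100−(A−B)/(C−B)×100, using unstimulated and LPS-only controls.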

[1] = Rattus norvegicus, Adipocyte, 24 h, 1 μM, read-out: Facilitating activity to produce leptin
[2] = Rattus norvegicus, Adipocyte, 24 h, 10 nm, read-out: Facilitating activity to produce leptin
[3] = Rattus norvegicus, Adipocyte, 24 h, 100 nm, read-out: Facilitating activity to produce leptin
[4] = Rattus norvegicus, Adipocyte, 10 nm, 24 hr, read-out: Facilitating activity to produce leptin
[5] = Rattus norvegicus, Adipocyte, 100 nm, 24 hr, read-out: Facilitating activity to produce leptin

## CCCCN(CCCC)c1ccc(-c2ccc(NC(=O)c3cc([N+](=O)[O-])ccc3Cl)cc2)cc1 [Example 207, N-[4-[4-(N,N-Dibutylamino)phenyl]phenyl]-(2-chloro-5-nitrophenyl)carboxamide]
Leptin production; [1]
  activity at 1 µM: 116%
Leptin production; [2]
  activity at 0.01 µM: 107%
Leptin production; [3]
  activity at 0.1 µM: 110%
TNF-α production; RAW264.7, 15 h
  inhibition at 1 µM: 27.1%

## CCCCN(CCC)c1ccc(-c2ccc(NC(=O)c3cc([N+](=O)[O-])ccc3Cl)cc2)cc1 [Example 208, N-[4-[4-(N-Butyl-N-propylamino)phenyl]phenyl]-(2-chloro-5-nitrophenyl)carboxamide]
Leptin production; [3]
  activity at 0.1 µM: 111%
TNF-α production; RAW264.7, 15 h
  inhibition at 1 µM: 26.3%

## CCCCN(CC)c1ccc(-c2ccc(NC(=O)c3cc([N+](=O)[O-])ccc3Cl)cc2)cc1 [Example 209, N-[4-[4-(N-Butyl-N-ethylamino)phenyl]phenyl]-(2-chloro-5-nitrophenyl)carboxamide]
Leptin production; [1]
  activity at 1 µM: 117%
Leptin production; [3]
  activity at 0.1 µM: 111%
TNF-α production; RAW264.7, 15 h
  inhibition at 1 µM: 26.9%

## CCCN(CC)c1ccc(-c2ccc(NC(=O)c3cc([N+](=O)[O-])ccc3Cl)cc2)cc1 [Example 212, N-[4-[4-(N-Ethyl-N-propylamino)phenyl]phenyl]-(2-chloro-5-nitrophenyl)carboxamide]
Leptin production; [1]
  activity at 1 µM: 112%
TNF-α production; RAW264.7, 15 h
  inhibition at 1 µM: 31.2%

## CCCCCN(CCCCC)c1ccc(-c2ccc(NC(=O)c3cc([N+](=O)[O-])ccc3Cl)cc2)cc1 [Example 214, N-[4-[4-(N,N-Dipentylamino)phenyl]phenyl]-(2-chloro-5-nitrophenyl)carboxamide]
Leptin production; [1]
  activity at 1 µM: 125%
Leptin production; [2]
  activity at 0.01 µM: 112%
Leptin production; [3]
  activity at 0.1 µM: 125%
TNF-α production; RAW264.7, 15 h
  inhibition at 1 µM: 20.1%

## CCCCCN(CC)c1ccc(-c2ccc(NC(=O)c3cc([N+](=O)[O-])ccc3Cl)cc2)cc1 [Example 216, N-[4-[4-(N-Ethyl-N-pentylamino)phenyl]phenyl]-(2-chloro-5-nitrophenyl)carboxamide]
Leptin production; [1]
  activity at 1 µM: 117%
Leptin production; [2]
  activity at 0.01 µM: 113%
Leptin production; [3]
  activity at 0.1 µM: 112%
TNF-α production; RAW264.7, 15 h
  inhibition at 1 µM: 30.6%

## CCN(CC)c1ccc(-c2ccc(NC(=O)c3cc([N+](=O)[O-])ccc3Cl)cc2)cc1 [Example 217, N-[4-[4-(N,N-Diethylamino)phenyl]phenyl]-(2-chloro-5-nitrophenyl)carboxamide]
Leptin production; [1]
  activity at 1 µM: 121%
Leptin production; [2]
  activity at 0.01 µM: 116%
Leptin production; [3]
  activity at 0.1 µM: 117%
TNF-α production; RAW264.7, 15 h
  inhibition at 1 µM: 28.7%

## O=C(Nc1ccc(-c2ccc(NC(=S)Nc3cccc(F)c3)cc2)cc1)c1cc([N+](=O)[O-])ccc1Cl [Example 245, N-[4-[4-[(3-Fluorophenyl)aminothiocarbonylamino]phenyl]phenyl]-(2-chloro-5-nitrophenyl)carboxamide]
Leptin production; [1]
  activity at 1 µM: 111%
Leptin production; [2]
  activity at 0.01 µM: 111%
TNF-α production; RAW264.7, 15 h
  inhibition at 1 µM: 34.6%

## O=C(Nc1nc(-c2ccc([N+](=O)[O-])cc2)cs1)c1cc([N+](=O)[O-])ccc1Cl [Example 246, N-[4-(4-Nitrophenyl)thiazol-2-yl]-(2-chloro-5-nitrophenyl)carboxamide]
Leptin production; [4]
  activity at 0.01 µM: 111%
Leptin production; [5]
  activity at 0.1 µM: 113%
TNF-α production; 15 hr
  inhibition at 1 µM: 18%

## CCOC(=O)NC(=S)Nc1ccc(-c2ccc(NC(=O)c3cc([N+](=O)[O-])ccc3Cl)cc2)cc1 [Example 251, N-[4-[4-(Ethoxycarbonylaminothiocarbonylamino)phenyl]phenyl]-(2-chloro-5-nitrophenyl)carboxamide]
Leptin production; [2]
  activity at 0.01 µM: 111%
Leptin production; [3]
  activity at 0.1 µM: 107%
TNF-α production; RAW264.7, 15 h
  inhibition at 1 µM: 29%

## O=C(Nc1ccc(-c2ccc(NC(=S)Nc3ccccc3)cc2)cc1)c1cc([N+](=O)[O-])ccc1Cl [Example 252, N-[4-[4-(Phenylaminothiocarbonylamino)phenyl]phenyl]-(2-chloro-5-nitrophenyl)carboxamide]
Leptin production; [1]
  activity at 1 µM: 108%
Leptin production; [2]
  activity at 0.01 µM: 110%
Leptin production; [3]
  activity at 0.1 µM: 113%
TNF-α production; RAW264.7, 15 h
  inhibition at 1 µM: 19.3%

## O=C(Nc1ccc(-c2ccc(NC(=O)c3cc([N+](=O)[O-])ccc3Cl)cc2)cc1)Nc1ccccc1[N+](=O)[O-] [Example 254, N-[4-[4-(2-Nitrophenylaminocarbonylamino)phenyl]phenyl]-(2-chloro-5-nitrophenyl)carboxamide]
Leptin production; Rattus norvegicus, Adipocyte, 1 μM, 24 hr, read-out: Facilitating activity to produce leptin
  activity at 1 µM: 109%
Leptin production; [4]
  activity at 0.01 µM: 111%
Leptin production; [5]
  activity at 0.1 µM: 106%
TNF-α production; 15 hr
  inhibition at 1 µM: 44.3%

## O=C(NC(=S)NCCc1ccc(NC(=O)c2cc([N+](=O)[O-])ccc2Cl)cc1)c1ccccc1 [Example 271, N-[4-(2-Phenylcarbonylaminothiocarbonylaminoethyl)phenyl]-(2-chloro-5-nitrophenyl)carboxamide]
Leptin production; [2]
  activity at 0.01 µM: 121%
Leptin production; [3]
  activity at 0.1 µM: 115%
TNF-α production; RAW264.7, 15 h
  inhibition at 1 µM: 25.2%

## CCS(=O)(=O)N(c1ccc(-c2ccc(NC(=O)c3cc([N+](=O)[O-])ccc3Cl)cc2)cc1)S(=O)(=O)CC [Example 276, N-[4-[4-(N,N-Diethanesulfonylamino)phenyl]phenyl]-(2-chloro-5-nitrophenyl)carboxamide]
Leptin production; [1]
  activity at 1 µM: 117%
Leptin production; Rattus norvegicus, Adipocyte, 24 h, 1 nm, read-out: Facilitating activity to produce leptin
  activity at 0.001 µM: 108%
Leptin production; [2]
  activity at 0.01 µM: 112%
Leptin production; [3]
  activity at 0.1 µM: 123%
TNF-α production; RAW264.7, 15 h
  inhibition at 1 µM: 28.5%

## N-[4-(Benzenesulfonylaminophenyl)phenyl]-(2-chloro-5-nitrophenyl)carboxamide [Example 128]
Leptin production; 1 μM, 24 hr
  Facilitating activity to produce leptin: 137.3%
Leptin production; 10 nm, 24 hr
  Facilitating activity to produce leptin: 108.8%
Leptin production; 100 nm, 24 hr
  Facilitating activity to produce leptin: 130.8%
TNF-α production; 15 hr
  Inhibitory Activity (%) against TNF-α production: 28.8%
